Consider 4 molecules from US11351151B2, “Compound having anticancer activity and preparation method and application” (3D Medicines (Beijing) Co., Ltd., priority 2016, dated 2022).

Assay in all cases: Cell proliferation assay (Alamar Blue)
Format in all cases: cell-based
Background: Alamar Blue is a resazurin reagent that responds to reducing activity.

The test system of assay [1] is JHH5. Conditions: 144 h; JHH5 liver cancer cell line; 6 days. The method, then:
(§1) 1. Instruments and Materials • Thermo 311 CO2 incubator; Haier biosafety cabinet; Molecular Devices microplate reader; Xiangyi brand L530 desktop low speed centrifuge; Olympus IX51 inverted fluorescence microscope, DMEM, RPMI 1640, MEM, DMEM/F12 1:1 medium, Fetal bovine serum, 0.25% trypsin solution, phosphate buffer (Thermo Fisher Shanghai Co., Ltd.); sigma dimethyl sulfoxide (DMSO), resazurin; 54 commercial tumor cell lines (including 26 liver cancer cell lines). Experimental drugs: compounds 1-12 and active drug Linifanib; chemotherapeutic drug Doxorubicin (HY-15142; Shanghai Qianyuan Biomedical Technology Co., Ltd.).
(§2) 2. Experimental Methods • 2.1 Cultivation of different cell lines • 54 cell lines were cultured in a culture medium containing fetal bovine serum and placed in a 5% CO 2 incubator at 37° C. for incubation. The cells were all grown in an adherent state, and the growth was observed under an inverted microscope, and subculture was performed when the cell confluence rate reached 80%-90%. The proportion and quantity of passage were determined by experimental needs. The ratio of subculture of this cell line was generally 1:2^˜1:3. • 2.2 inhibition effect on the proliferation of different tumor cell lines • Cell test: 54 cell lines in logarithmic growth phase were inoculated in 96-well culture plates at 500^˜1×10^4/well (the optimal seeding density of each cell line was determined in pre-experiment), After incubating at 37° C. for 4 h in a 5% CO2 humidification incubator, added 10 μL of compounds 1-12 or Linifanib to each well, and tested 9 drug concentration gradients for each compound (diluted from the highest concentration of the test by 3.16 times). The solubility of each compound was different at a starting concentration of 30 or 100 μM, respectively. The QC reference compound Doxorubicin was added simultaneously to each cell line test, and the final drug concentrations were 10, 3.16, 1, 0.31, 0.1, 0.03, 0.01, 0.003, and 0.001 μM, respectively. In addition, a positive control group (100% inhibition) and a negative control group (0% inhibition) were set at the same time. The drug group was repeated for 2 wells per concentration, and the positive control group and the negative control group were repeated for 6 wells. After the culture was continued for 6 days in the incubator, AlamarBlue test operation was followed; • AlamarBlue test procedure: Incubated with 10 μL of AlamarBlue reagent per well for 1-4 h, shook for 1-2 min, MD microplate reader EX: 560 nm, EM: 590 nm wavelength to measure fluorescence, recorded the results, calculated the cell inhibition rate of the compound of the invention. Cell inhibition rate (%)=(A0% inhibition−A administration)/(A0% inhibition−A100% inhibition)×100%, and then using the method of nonlinear regression using Graph Pad Prism 5.0 or MATILAB software (usually using four parameters) to graph and obtain a drug dose response curve to obtain an IC50 value of the compound of the present invention acting on a cancer cell line.

The test system of assay [2] is HuTu80. The settings on record: Homo sapiens, 144 h; HuTu80 tumor cell line; 6 days. The method, then: as §1, §2
The test system of assay [3] is SNU387. The settings on record: Homo sapiens, SNU-387, 144 h; SNU387 liver cancer cell line; 6 days. How it is done:
as §1, §2

The test system of assay [4] is HT55. Conditions: Homo sapiens, 144 h; HT55 tumor cell line; 6 days. How it is done: as §1, §2
The subject of assay [5] is NCl-H661. Conditions: 144 h; NCl-H661 tumor cell line; 6 days. How it is done:
as §1, §2

For assay [6], the system named is MG63. Conditions: Homo sapiens, MG-63, 144 h; MG63 tumor cell line; 6 days. How it is done: as §1, §2
Assay [7] deals with MDA-MB-435S. Conditions: Homo sapiens, 144 h; MDA-MB-435S tumor cell line; 6 days. The method, then: as §1, §2
In assay [8] the test system is Li-7. The settings on record: 144 h; Li-7 liver cancer cell line; 6 days. The method, then: as §1, §2
For assay [9], the system named is K562. Conditions: Homo sapiens, 144 h; K562 tumor cell line; 6 days. How it is done:
as §1, §2

The subject of assay [10] is NCl-H716. Conditions: 144 h; NCl-H716 tumor cell line; 6 days. How it is done:
as §1, §2

The test system of assay [11] is JHH4. Conditions: JHH-4, 144 h; JHH4 liver cancer cell line; 6 days. The method, then: as §1, §2
Assay [12] deals with MDA-MB-231. The settings on record: Homo sapiens, 144 h; MDA-MB-231 tumor cell line; 6 days. How it is done: as §1, §2
Assay [13] relates to HLF. The settings on record: 144 h; HLF liver cancer cell line; 6 days. How it is done: as §1, §2
For assay [14], the system named is NCl-H2170. Conditions: 144 h; NCl-H2170 tumor cell line; 6 days. The method, then: as §1, §2
The subject of assay [15] is MFM-223. The settings on record: Homo sapiens, 144 h; MFM-223 tumor cell line; 6 days. How it is done: as §1, §2
The test system of assay [16] is HLE. Conditions: Homo sapiens, 144 h; HLE liver cancer cell line; 6 days. How it is done: as §1, §2
The test system of assay [17] is SNU886. Conditions: SNU-886, 144 h; SNU886 liver cancer cell line; 6 days. The method, then: as §1, §2
For assay [18], the system named is HUH7. Conditions: Homo sapiens, Huh-7, 144 h; HUH7 liver cancer cell line; 6 days. How it is done: as §1, §2
For assay [19], the system named is JHH6. The settings on record: 144 h; JHH6 liver cancer cell line; 6 days. How it is done:
as §1, §2

Assay [20] relates to DLD1. Conditions: Homo sapiens, DLD-1, 144 h; DLD1 tumor cell line; 6 days. How it is done: as §1, §2
Assay [21] concerns SW620. The settings on record: Homo sapiens, SW-620, 144 h; SW620 tumor cell line; 6 days. How it is done: as §1, §2
The subject of assay [22] is TE-6. Conditions: Homo sapiens, 144 h; TE-6 tumor cell line; 6 days. How it is done:
as §1, §2

Assay [23] has as its system DU145. The settings on record: Homo sapiens, DU-145, 144 h; DU145 tumor cell line; 6 days. How it is done: as §1, §2
Assay [24] concerns NCl-H1648. Conditions: 144 h; NCl-H1648 tumor cell line; 6 days. The method, then:
as §1, §2

In general, IC50 refers to the concentration at which inhibition is half-maximal. As for `Cc1ccc(F)c(NC(=O)Nc2ccc(-c3cccc4c3c(N)nn4C(=O)CCCCCNC(=O)C[C@H](N)C(=O)N[C@@H](CCC(=O)N[C@@H](CCC(=O)N[C@@H](CCC(=O)N[C@@H](CCC(=O)N[C@@H](CCC(=O)N[C@@H](CCC(=O)N[C@@H](CCC(=O)N[C@@H](CCC(=O)N[C@@H](CCC(=O)O)C(=O)O)C(=O)O)C(=O)O)C(=O)O)C(=O)O)C(=O)O)C(=O)O)C(=O)O)C(=O)O)cc2)c1` [Compound 6], the IC50 in [1] is greater than 100 µM; in [2], 61 µM; in [3], greater than 100 µM; in [4], greater than 100 µM; in assay [5] it was greater than 100 µM; in [6] it was greater than 100 µM. The IC50 in [7] is greater than 100 µM; in assay [8] it was 82 µM; in assay [9], 74.3 µM; in assay [10] it was 92.1 µM; in assay [11], 79 µM; in assay [12], greater than 100 µM. Also, the IC50 was 82.1 µM in assay [13]; greater than 100 µM in assay [14]; 72.2 µM in assay [15]; 68.9 µM in [16]; greater than 100 µM in assay [17]; 92.1 µM in assay [18]. The 50% inhibitory concentration (IC50) is greater than 100 µM in assay [19]; greater than 100 µM in [20]; greater than 100 µM in [21]; greater than 100 µM in [22]; 63.3 µM in assay [23]; greater than 100 µM in assay [24].
As to `Cc1ccc(F)c(NC(=O)Nc2ccc(-c3cccc4c3c(N)nn4C(=O)CCCCCNC(=O)C[C@H](N)C(=O)N[C@@H](CCC(=O)N[C@@H](CCC(=O)N[C@@H](CCC(=O)N[C@@H](CCC(=O)O)C(=O)O)C(=O)O)C(=O)O)C(=O)O)cc2)c1` [Compound 5], the IC50 is greater than 100 µM in assay [1]; 48.4 µM in assay [2]; greater than 100 µM in assay [3]; greater than 100 µM in assay [4]; greater than 100 µM in [5]; greater than 100 µM in [6]. In addition, the IC50 in [7] was greater than 100 µM; in assay [8], 59.1 µM; in [9], 56.1 µM; in assay [10] it was 66.7 µM; in assay [11], 60.3 µM; in assay [12], greater than 100 µM. The IC50 in assay [13] was 63.9 µM; in assay [14], greater than 100 µM; in [15], 48.3 µM; in assay [16], 53.4 µM; in [17], greater than 100 µM; in [18] it was 77.9 µM. The IC50 in assay [19] is 79.3 µM; in assay [20], greater than 100 µM; in [21] it was greater than 100 µM; in assay [22] it was greater than 100 µM; in [23] it was 55.4 µM; in [24], greater than 100 µM.
Turning to `Cc1ccc(F)c(NC(=O)Nc2ccc(-c3cccc4c3c(N)nn4C(=O)C[C@H](N)C(=O)N[C@@H](CCC(=O)O)C(=O)O)cc2)c1` [Compound 1], the IC50 in assay [1] was determined as 15.2 µM; in assay [2], 3.17 µM; in assay [3], 12.8 µM; in assay [4] it was 16.8 µM; in [5] it was 7.09 µM; in assay [6] it was 7.69 µM. The 50% inhibitory concentration (IC50) in assay [7] is 18.9 µM; in [8], 5.35 µM; in assay [9], 3.99 µM; in assay [10], 1.82 µM; in assay [11] it was 2.62 µM; in assay [12], 3.95 µM. Also, the IC50 in assay [13] came to 3.98 µM; in assay [14], 0.97 µM; in assay [15], 8.89 µM; in assay [16] it was 1.98 µM; in [17], 1.47 µM; in [18], 3.22 µM. Also, the IC50 was 3 µM in assay [19]; 9.86 µM in assay [20]; 2.79 µM in [21]; 4.29 µM in [22]; 2.76 µM in assay [23]; 6.89 µM in assay [24].
As for `Cc1ccc(F)c(NC(=O)Nc2ccc(-c3cccc4c3c(N)nn4C(=O)CCCCCCCCCCCNC(=O)C[C@H](N)C(=O)N[C@@H](CCC(=O)O)C(=O)O)cc2)c1` [Compound 7], the IC50 in assay [1] is greater than 100 µM; in assay [2] it was 21.1 µM; in [3] it was greater than 100 µM; in assay [4], greater than 100 µM; in assay [5] it was 86.7 µM; in assay [6], 73 µM. The IC50 in [7] is greater than 100 µM; in assay [8], 34.5 µM; in [9] it was 23.9 µM; in assay [10] it was 8.45 µM; in assay [11], 39.4 µM; in assay [12] it was 32.1 µM. For the same molecule, the IC50 in assay [13] came to 24.4 µM; in [14], 22.5 µM; in [15] it was 24.1 µM; in assay [16], 36.3 µM; in [17] it was 22 µM; in [18], 22.1 µM. Besides, the half-maximal inhibitory concentration (IC50) was 23.6 µM in assay [19]; 97 µM in assay [20]; 21.9 µM in assay [21]; 74.3 µM in assay [22]; 17.2 µM in assay [23]; greater than 100 µM in assay [24].
